{
  "source": "paper PMC2196289",
  "about": "(The Journal of Experimental Medicine, 1997)",
  "molecular_target": "T1, mouse LXA4R (lipoxin A4 receptor) (Mus musculus, UniProt O08790)",
  "T1 sequence (O08790 1-351)": "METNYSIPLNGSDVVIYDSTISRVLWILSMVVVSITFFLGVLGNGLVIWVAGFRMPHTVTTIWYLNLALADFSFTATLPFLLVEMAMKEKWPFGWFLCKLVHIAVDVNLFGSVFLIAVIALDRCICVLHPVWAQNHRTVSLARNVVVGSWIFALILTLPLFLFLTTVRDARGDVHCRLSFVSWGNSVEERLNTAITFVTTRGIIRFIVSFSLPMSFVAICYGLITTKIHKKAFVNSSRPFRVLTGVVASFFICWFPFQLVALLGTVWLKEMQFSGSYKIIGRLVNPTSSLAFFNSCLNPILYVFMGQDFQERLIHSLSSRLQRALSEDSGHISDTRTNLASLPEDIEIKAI",
  "assay": "[3H]LXA4 radioligand binding",
  "assay_type": "cell-based",
  "data": [
    {"smiles": "CCCCC[C@H](O)/C=C/C=C\\C=C\\C=C\\[C@@H](O)[C@@H](O)CCCC(=O)O", "note": "[LXA4, 5(S),6(R),15(S)-trihydroxy7,9,13-trans-11-cis-eicosatetraenoic acid]", "values": [
      {"measurement": "Kd", "value": "1.5 ± 0.6", "unit": "nM"}
    ]}
  ]
}
